From US10160867B2, “Benzoxaborole-containing coating resistant to cellulose-supportable fungus” (THE PENN STATE RESEARCH FOUNDATION, priority 2015, dated 2018)
Values after ≈ are worked out from the molar mass of the structure shown.

Assays:
Assay type in all cases: cell-based
[1] = system: Penicillium chrysogenum; experiment: Fungus resistance test for painted surfaces containing antifungal additives (defacement rating); parameters: key: 10 = no defacement, 0 = completely defaced
Description: (§1) A Defacement Rating is measured by estimating the percentage of surface defacement with 10 being no defacement and 0 begin completely defaced.
(§2) This test was used to evaluate the resistance of paint films containing antifungal additives to surface fungal growth.
(§3) Olympic® Home interior flat latex paint (PPG Industries, Pittsburgh, Pa.) and Valspar® QuikHide White flat interior paint (Valspar Corporation, Minneapolis, Minn.) were used for all studies unless otherwise noted. Stock solutions of the antifungal additives of interest were prepared in reagent grade dimethyl sulfoxide (DMSO; Alfa Aesar, Ward Hill, Mass.). Additives were spiked (by adding appropriate amounts of the antifungal stock solutions) into the liquid paint at specified concentrations. Samples of the additive-spiked paint were vigorously mixed with a vortex mixer for at least one minute to ensure uniform dispersion of the additive in the paint. […] Studies that use other brands of paint followed the same protocol as described for those using the Olympic® Home interior flat latex paint and Valspar® QuikHide paint.
(§4) Test surfaces were prepared in triplicate. In most cases, the tested conditions were repeated on a different date, again in triplicate. […] Two coats of paint were applied with a polyester brush to completely cover both faces of the filter paper disc, allowing at least four hours drying time between coats.
(§5) Nutrient-Salts Agar (NSA) medium was prepared according to ASTM method G21-13 in 100×15 mm sterile polystyrene petri dishes (VWR® Radnor, Pa.) with a solidified agar layer of about 3 to about 6 mm (⅛ to ¼ in.) in depth. The agar was allowed to solidify for at least 24 hours before being used. The painted test filter paper discs were placed in the center of the agar plates in a biosafety hood while wearing clean nitrile gloves.
(§6) The paint coatings were evaluated against three representative cellulose-supportable fungi: Stachybotrys chartarum, Penicillium chrysogenum, and Alternaria alternata. […] Fungal isolates of Alternaria alternata and Penicillium chrysogenum were obtained from the Plant Pathology and Environmental Microbiology Department at Penn State University.
(§7) A spore suspension of each of these fungi was prepared by pouring a 20-mL portion of autoclaved deionized water containing 0.01% Tween® 20 onto a subculture of each fungal species. Spores were counted with the use of a hemocytometer (Hausser Scientific, Horsham, Pa.) under a compound light microscope. Spore suspensions of Stachybotrys chartarum and Penicillium chrysogenum were diluted to 1×10^6 spores/mL with autoclaved deionized water. Spore suspensions of Alternaria alternata were used “as is” in the range of 200,000 to 400,000 spores/mL.
(§8) Painted test surfaces were inoculated with a spray bottle or with a sterile cotton-tipped applicator. To inoculate the sample with a spray bottle, the spore suspension was sprayed twice on the painted test discs with an autoclaved spray bottle that delivered approximately 0.14 g of fluid per spray. To inoculate the sample with a cotton-tipped applicator, an autoclaved cotton-tipped applicator was submerged in approximately 400 μL of the spore inoculum solution (spore concentrations described above) and applied evenly over the surface of the painted test surface twice. A fresh autoclaved cotton-tipped applicator was used for the application of each painted disc. All the paint studies with Alternaria alternata and Stachybotrys chartarum were inoculated using the spray bottle method. For studies with Penicillium chrysogenum using Olympic® Home paint, the spray bottle inoculation method was used. For studies with Penicillium chrysogenum using Valspar® QuikHide paint, the cotton-tipped applicator inoculation method was used.
(§9) After inoculation, the NSA agar plates were sealed with Parafilm®.

[2] = system: Stachybotrys chartarum; experiment: as above; parameters: key: 10 = no defacement, 0 = completely defaced
Description: as §1, §2, §3, §4, §5, §6, §7, §8, §9

[3] = system: Alternaria alternata; experiment: as above; parameters: key: 10 = no defacement, 0 = completely defaced
Description: as §1, §2, §3, §4, §5, §6, §7, §8, §9

[4] = system: Aspergillus fumigatus; experiment: 3 day MIC, broth microdilution in 25% PDB; conditions: for MIC: 72 h
Description: Stock solutions (concentrations of between 4,000 μg/mL to 10,000 μg/mL; stored at −18° C.) of the above antifungals were prepared in dimethyl sulfoxide (DMSO). The stock solutions were further diluted into sterile 25% potato dextrose broth (PDB) so that the diluted solutions could be used for the antifungal susceptibility studies. This way, a typical microdilution study would reach a final ratio of about 0.5-2% v/v of DMSO in 25% PDB.
Spore inocula were prepared in sterile distilled water with 0.1% Tween® 20 (a polysorbate surfactant), and a hemocytometer was used to determine the spore density. Typically, the spore inoculum was prepared fresh prior to each study, and the inoculum was appropriately diluted to a final concentration of 0.4-1×10^5 spores/mL or colony-forming unit (CFU)/mL in each study. The spore suspension can be stored in a refrigerator at 4° C. for up to one week.
The minimal inhibitory concentrations (MICs) for individual antifungal agents were determined by following a modified broth microdilution protocol CLSI (Clinical and Laboratory Standards Institute) M38-A2 [Clinical and Laboratory Standards Institute (2008) Reference method for broth dilution antifungal susceptibility testing of filamentous fungi—2nd edition: Approved Standard M38-A2, CLSI, Wayne, Pa.] where 25% potato dextrose broth (PDB) was used as the medium. The studies were performed in flat bottom, 96-well microtiter plates (Greiner Bio-One, Frickenhausen, Germany).
Plates sealed with clear polyester film (VWR, Radnor, Pa.) were incubated at a temperature of about 25° C. The progress of fungal growth was monitored at 48 hours and 72 hours.

[5] = +100 μg/mL in Olympic Home paint, 7 days
[6] = +100 μg/mL in Olympic Home paint, 14 days
[7] = +100 μg/mL in Olympic Home paint, 21 days
[8] = +200 μg/mL in Olympic Home paint, 7 days
[9] = +200 μg/mL in Olympic Home paint, 14 days
[10] = +200 μg/mL in Olympic Home paint, 21 days
[11] = +200 μg/mL in Valspar QuikHide paint, 7 days
[12] = +200 μg/mL in Valspar QuikHide paint, 14 days
[13] = +200 μg/mL in Valspar QuikHide paint, 21 days
[14] = +10 μg/mL in Olympic Home paint, 7 days
[15] = +10 μg/mL in Olympic Home paint, 14 days
[16] = +10 μg/mL in Olympic Home paint, 21 days

| Structure (SMILES) | Average defacement rating ± standard deviation [1, 5] | Average defacement rating ± standard deviation [1, 6] | Average defacement rating ± standard deviation [1, 7] | Average defacement rating ± standard deviation [2, 5] | Average defacement rating ± standard deviation [2, 6] | Average defacement rating ± standard deviation [2, 7] | Average defacement rating ± standard deviation [3, 5] | Average defacement rating ± standard deviation [3, 6] | Average defacement rating ± standard deviation [3, 7] | MIC [4] [µg/mL] | Average defacement rating ± standard deviation [1, 8] | Average defacement rating ± standard deviation [1, 9] | Average defacement rating ± standard deviation [1, 10] | Average defacement rating ± standard deviation [1, 11] | Average defacement rating ± standard deviation [1, 12] | Average defacement rating ± standard deviation [1, 13] | other results |
| --- | --- | --- | --- | --- | --- | --- | --- | --- | --- | --- | --- | --- | --- | --- | --- | --- | --- |
| O=C1C2CC=CCC2C(=O)N1SC(Cl)(Cl)Cl (centres unmarked) [Captan] | 3.2 ± 1.8 | 0.0 ± 0.0 | 0.0 ± 0.0 | 2.9 ± 3.3 | 0.0 ± 0.0 | 0.0 ± 0.0 | 0.1 ± 0.3 | 0.0 ± 0.0 | 0.0 ± 0.0 | 12.5 (≈ 41.6 µM) | – | – | – | – | – | – | Average defacement rating ± standard deviation ([3]; +100 μg/mL in Olympic Home paint, 7 days, listed as captan): 0.1±0.3 |
| N#Cc1c(Cl)c(Cl)c(Cl)c(C#N)c1Cl [Chlorothalonil, chlorothalonil] | 4.9 ± 1.9 | 0.0 ± 0.0 | 0.0 ± 0.0 | 5.8 ± 3.0 | 0.8 ± 1.8 | 0.6 ± 1.7 | 1.9 ± 2.4 | 0.5 ± 1.8 | 0.5 ± 1.8 | 0.2 (≈ 0.752 µM) | 8.3 ± 1.4 | 0.8 ± 2.0 | 0.0 ± 0.0 | 10.0 ± 0.0 | 5.3 ± 0.6 | 0.3 ± 0.6 | – |
| OB1OCc2cc(Cl)ccc21 [Compound B8, 5-chloro-1,3-dihydro-2,1-benzoxaborol-1-ol] | 7.3 ± 1.3 | 0.0 ± 0.0 | 0.0 ± 0.0 | 9.9±0.4 | 8.1 ± 1.9 | – | 9.9±0.4 | 8.1 ± 1.5 | 7.8±1.5 | 0.5 (≈ 2.97 µM) | 10.0±0.0 | 9.5 ± 1.2 | 8.7 ± 2.3 | – | – | – | Average defacement rating ± standard deviation [2, 14]: 5.7 ± 4.9; Average defacement rating ± standard deviation [2, 15]: 0.0 ± 0.0; Average defacement rating ± standard deviation [2, 16]: 0.0 ± 0.0; Average defacement rating ± standard deviation [3, 14]: 5.0 ± 1.0; Average defacement rating ± standard deviation [3, 15]: 4.7 ± 1.2; Average defacement rating ± standard deviation [3, 16]: 4.7 ± 1.2 |
| OB1OCc2cc(F)ccc21 [Compound B9, 5-Fluoro-1,3-dihydro-2,1-benzoxaborol-1-ol] | 3.7 ± 1.5 | 0.0 ± 0.0 | 0.0 ± 0.0 | 9.9±0.3 | 4.4 ± 2.9 | 2.0 ± 2.8 | 7.4±1.8 | 3.8 ± 0.9 | 3.8±0.9 | 0.5 (≈ 3.29 µM) | 10.0 ± 0.0 | 9.8 ± 0.4 | 6.7 ± 3.9 | 10.0 ± 0.0 | 10.0 ± 0.0 | 9.7 ± 0.6 | – |
| CCCCNC(=O)OCC#CI [IPBC, 3-Iodo-2-propynylbutylcarbamate] | 10.0 ± 0.0 | 9.4 ± 0.4 | 9.4 ± 0.4 | 9.9±0.3 | 8.1 ± 1.5 | 6.1±2.7 | 9.9 ± 0.4 | 8.4 ± 2.7 | 7.5 ± 3.4 | – | 10.0 ± 0.0 | 10.0 ± 0.0 | 9.3 ± 0.8 | 10.0 ± 0.0 | 10.0 ± 0.0 | 10.0 ± 0.0 | 3 day MIC [4]: 0.4 µg/mL |
| CCCCCCCCn1sccc1=O [OIT, 2-Octyl-4-isothiazolin-3-one] | 10.0 ± 0.0 | 10.0 ± 0.0 | 9.3 ± 1.5 | 9.9 ± 0.3 | 8.2 ± 2.5 | 6.9 ± 2.4 | 8.1±0.3 | 6.9 ± 1.0 | 4.9±0.7 | – | 10.0 ± 0.0 | 10.0 ± 0.0 | 9.8 ± 0.4 | 10.0 ± 0.0 | 10.0 ± 0.0 | 10.0 ± 0.0 | – |
| Oc1cc(Cl)ccc1Oc1ccc(Cl)cc1Cl [Triclosan, triclosan] | 1.8 ± 1.4 | 0.0 ± 0.0 | 0.0 ± 0.0 | 0.8 ± 1.4 | 0.0 ± 0.0 | 0.0 ± 0.0 | 0.1 ± 0.4 | 0.0 ± 0.0 | 0.0 ± 0.0 | – | 9.3 ± 0.5 | 0.2 ± 0.4 | 0.0 ± 0.0 | 4.0 ± 3.6 | 0.0 ± 0.0 | 0.0 ± 0.0 | – |
